Test results reported in patent US10787485B2, “Peptide for coating surfaces” (Universität Leipzig, priority 2015, dated 2020).
Entries after “also recorded” stand apart in the source; their conditions may differ.

Columns and labels:
[1] = Biotin ELISA, binding of biotinylated peptides to etched titanium slices; settings: for pEC50 binding affinity to titanium / EC50: biotinylated peptides, etched titanium slices, 2 hrs at RT in TBS; for EC50: read-out: EC50 binding affinity to titanium; for beginning of saturation phase of binding to titanium: concentration effect curve of the biotin ELISA
Protocol: Following synthesis of the mussel peptide by solid phase peptide synthesis (Fmoc/tBu strategy) the binding affinity to titanium was studied.
(§1) For that, titanium slices were etched in order to obtain a freshly oxidized surface. Subsequently, the titanium slices were incubated with various peptide concentrations. Following intensive washing steps titanium-bound peptide was identified with the well-described biotin-streptavidin interaction. […] Moreover, stability of the DOPA peptides was tested in cell supernatant to imitate in vitro conditions. For that, titanium slices were coated with the corresponding biotinylated peptides (concentration=1 μM). Following incubation in SaOS-2 cell supernatant at 37° C. remaining peptide was identified by means of the biotin ELISA. Within a period of 7 days constantly more than 50% of immobilized and biotinylated peptide were detected (FIG. 2C).
Titanium foil (Sigma Aldrich, thickness: 0.127 mm) was cut to round pieces (area=0.43 cm^2) and etched in H2SO4 (30%)/H2O2 (1:1 v/v) for 7 min. Following washing steps with water and TBS buffer (50 mM tris(hydroxymethyl)-aminomethane (Tris), 150 mM NaCl, pH 7.6) the titanium slices were incubated with various concentrations of biotinylated peptides in TBS buffer dissolved for 2 hrs. at RT. Subsequently, the coated slices were washed 5 times with TBS-T buffer (50 mM Tris, 150 mM NaCl, 0.1% Tween 20, pH 7.6) and transferred to new reaction vessels. The following biotin ELISA was performed in accordance with Hassert et al.^3 Zero reading values were obtained with uncoated titanium slices and subtracted from the generated values (absorption per cm^2). The obtained data points were non-linearly fitted with GraphPad Prism 5 software (GraphPadInc.). Error bars are represented as standard error of the mean (SEM) from at least 2 independent experiments.

[2] = Stability test by biotin ELISA of peptides immobilized on titanium, in SaOS-2 cell supernatant; format: in vitro ADME; settings: titanium coated at 1 μM, 37° C.
Protocol: as §1
Titanium slices were etched as described and incubated overnight with 1 μM of peptide solutions in TBS buffer at RT. Subsequently, the coated slices were washed 5 times with TBS-T buffer and transferred to new reaction vessels. Thereafter, the titanium slices were incubated with cell supernatant (of SaOS-2 cells after 2 days of cell cultivation) at 37° C. for certain times. To detect […], biotinylated peptide on the surface the titanium slices were washed 4 times with TBS-T and once with TBS and the biotin ELISA was performed as described. Zero reading values were obtained by uncoated titanium slices and subtracted from the generated data. The obtained measuring values were normalized to the value measured at 0 min. Error bars are represented as standard error of the mean (SEM) from at least 2 independent experiments (double determination).

[3] = test system: SaOS-2 cells; test: Proliferation assay (BrdU) on coated titanium; format: cell-based; settings: 24 h incorporation after 2 d of cell adhesion, normalized to uncoated titanium
Protocol: (§2) In addition to initial cell adhesion after 6 h cell viability and proliferation after 3 d was studied. Incorporation of the bromine-labeled thymidine analogue bromodeoxyuridine (BrdU) within 24 h, after 2 d of cell adhesion, was used to determine proliferation of cells on coated titanium. No significant changes could be found between the immobilized peptides and controls (FIG. 5C). However, a peptide coating is advantageous compared to untreated titanium. […] Cell viability was studied after 3 days of adhesion by reacting resazurin to resorufin by living cells. […] This fact emphasizes the cell repellent, but at the same time not toxic properties of the PEG. […] Thus, the advantageous approach to present both cell binding peptides in one molecule is confirmed.
Cells were sown onto coated and washed titanium slices in FCS-free medium in a 96-well plate. After one day the medium was replaced by FCS-containing medium. On day 2 bromodeoxyuridine (BrdU) was added to each well for labelling (colorimetric Cell Proliferation kit, Roche). After 24 hrs. of incorporation of the label the cells were washed and fixed. […] Binding of the antibody was detected with the addition of a 3,3′,5,5′-tetramethylbenzidine (TMB) solution and H2O2(Calbiochem). […] The measured values (mean±SEM) were evaluated from 4 independent experiments performed in triplicates and normalized to uncoated titanium.

[4] = test system: SaOS-2 cells; test: Immunolabelling of focal contacts (vinculin) on peptide coatings; format: cell-based; settings: 24 hrs adhesion, anti-vinculin antibody
Protocol: (§3) To determine the bioactivity of the ligated peptides and their controls cell adhesion studies have been performed. Osteoblast-like cells (SaOS-2) have been sown on etched peptide-coated titanium. All cellular experiments were performed in serum-free medium to prevent false results by adsorption of serum proteins. To study initial cell adhesion the cells were fixed and dyed after 6 h of cultivation to observe morphology and average cell plane and number by means of fluorescence microscopy. […] Indeed, an increase in cell size was observed, slightly higher than on uncoated titanium slices. […] Cells having a fibroblast-like morphology and distinct bundles of fibrils have been found on all RGD-containing peptide coatings. […] In addition to the average cell plane the cell number was determined by counting cells that adhered after 6 h. […] Moreover, a similar tendency as already in the cell plane experiment could be observed. […] It is known that RGD peptides mediate the formation of focal contacts that are decisive for the outer-inner communication between cell and ECM.^6 By immuno-labeling with an anti-vinculin antibody it is possible to visualize vinculin, a protein involved in building up focal adhesion.
Cells (40,000 per well) were sown onto coated and washed titanium slices as already described. After 1 d of cell adhesion the slices were washed twice with PBS. All of the following washing steps were performed with 0.05% (v/v) Tween-20 in PBS. Thereafter, the cells were fixed and permeabilized as already described. To block unspecific interactions the slices were incubated with 1% bovine serum albumin (BSA) in PBS for 40 min. Subsequently, the cells were incubated with a murine monoclonal antibody against vinculin (Millipore, staining kit, 1:200) for 1 hr. at RT. Thereafter, the cells were washed and labeled with phalloidin-TRITC and a fluoresceinisothiocyanate (FITC) conjugated goat anti-mouse antibody (Millipore, 1:100) in 1% (v/v) BSA in PBS for 2 hr. Following a further washing step the nucleus was dyed with 4′,6-diamidino-2-phenylindol (DAPI, Millipore) in PBS for 15 min. Before the slices were attached to slides they were washed three times for 10 min. each. Fluorescence microscopy was performed on an Axio Observer microscope and an ApoTome Imaging System (Zeiss).

[5] = test system: SaOS-2 cells; test: Viability assay (resazurin) on coated titanium; format: cell-based; settings: after 3 days of adhesion
Protocol: as §2
Cells were sown onto coated and washed titanium slices in FCS-free medium in a 96-well plate. After one day the medium was replaced by FCS-containing medium. On day 3 20 μL of CellTiderBlue® (Promega) were added to each well. After 2 hrs. of incubation the reaction of resazurin to resorufin was determined by means of fluorescence intensity measurement at 560Ex/590Em nm. The measured values (mean±SEM) were evaluated from 4 independent experiments performed in triplicate.

[6] = test system: SaOS-2 cells; test: Cell adhesion assay on peptide-coated titanium (fluorescence microscopy); format: cell-based; settings: 6 h adhesion, serum-free medium; for average cell plane (cell propagation, cell size) / cell morphology / actin cytoskeleton: 1 μM peptide coating; for cell number of adhered cells: normalized to uncoated Ti
Protocol: as §3
Titanium foil was stamped and etched as already described. Following washing steps with water and PBS buffer (Dulbeccos phosphate) the titanium slices were sterilized with 70% ethanol/water (v/v) in an ultrasonic bath for 15 min. After having washed twice with PBS buffer the titanium slices were incubated overnight in a 48-well plate at RT with 300 μL of 1 μM of a peptide solution in PBS, PBS (negative control), and fibronectin in PBS (25 μg/mL, positive control).
Coated titanium slices (48-well plate) were washed twice with PBS. SaOS-2 cells were re-suspended in medium without FCS. Thereafter, the cells were sown on the coated titanium slices (50,000-90,000 cells per well, in this range we didn't find any influence on the cell plane for respective coating). Following adhesion for 6 hrs. the slices were washed with PBS and the cells were fixed with 4% paraformaldehyde in PBS for 30 min. Subsequently, the adhered cells were washed and permeabilized with 1% Triton X-100 in PBS for 1 min. Thereafter, the cells were dyed with phalloidin-tetramethylrhodamine isothiocyanate (phalloidin-TRITC) and HOECHST 33342 (both Sigma Aldrich). For fluorescence microscopy (Axio Observer microscope, Zeiss) the slices were attached to slides. For each slice (triplicate) 3 representative images at 20 fold and 10 fold magnification were made. Then, the average cell plane was determined by edging (Software Axio Vision 4.8, Zeiss) each single cell on one representative image (20 fold) each of each triplicate. The determined values were summarized from 3 independent experiments and represented as mean±SEM. To determine the cell number, three 10 fold magnified images were evaluated by means of ImageJ software and normalized to titanium=1, n≥3.

Substance | pEC50 binding affinity to titanium [1] | EC50 [1] [nM] | stability on titanium, comparison of peptides [2] | formation of focal adhesion contacts (vinculin) [4] | average cell plane (cell propagation, cell size) [6] | cell morphology / actin cytoskeleton [6] | further results
Bio-X-X-A-K-P*-S-Y*-P*-P*-T-Y*-K-NH2 [mefp-1] | 8.2±0.1 | 6.4 | no significant differences | – | – | – | beginning of saturation phase of binding to titanium [1]: sub-μM range
Bio-X-X-C-Peg-Y*-K-Y*-Peg-G*-βA-NH2 [bio-MP] | – | – | no significant differences | – | – | – | –
C-Peg-Y*-K(c[RGDfK])-Y*-Peg-G*(K(N3)-FHRRIKA-NH2)-βA-NH2 [MP-RGD-HBP] | – | – | – | line-like adhesion contacts (green) were formed; also recorded: slight increase in focal complexes | highest average cell plane | distinctive, parallel actin filaments have formed | cell proliferation (BrdU incorporation) [3]: slightly increased cell proliferation; cell viability (resazurin to resorufin) [5]: best result among all synthesized peptides
C-Peg-Y*-K(c[RGDfK])-Y*-Peg-G*-βA-NH2 [MP-RGD] | – | – | – | line-like adhesion contacts (green) were formed | average cell size comparable to the naturally occurring ECM protein fibronectin | – | –
C-Peg-Y*-K-Y*-Peg-G*(K(N3)-FHRRIKA-NH2)-βA-NH2 [MP-HBP] | – | – | – | a few or no focal adhesion contacts | increase of cell propagation compared with MP and uncoated titanium | only formed a few actin filaments and adhered in irregular cell shapes | –
C-Peg-Y*-K-Y*-Peg-G*-βA-NH2 [MP] | 7.6±0.1 | 23.6 | tendency to a higher stability | a few or no focal adhesion contacts | smallest cell propagation | rather round shape with slightly formed cytoskeleton | beginning of saturation phase of binding to titanium [1]: sub-μM range; cell viability (resazurin to resorufin) [5]: more living cells could be analyzed on this coating than on titanium; cell number of adhered cells [6]: smallest cell number
P*-T-Y-K-NH2 [bio-(−) mefp-1] | 4.6±0.1 | > 10000 | – | – | – | – | –
c[RGDfK(dienophile)] | – | – | – | – | – | – | cell number of adhered cells [6]: increased to a greater extent than on HBP
